What follows are compounds tested against T1, JAK3 (Homo sapiens, UniProt P52333) (assay: JAK Family Selectivity Assay: JAK3 vs JAK2 binding affinity). Conditions: Kd JAK3 over Kd JAK2.
T1 construct: made in house; host or cells: T7 phage in BL21-derived E. coli or HEK-293 cells
T1 sequence (P52333 1-1124): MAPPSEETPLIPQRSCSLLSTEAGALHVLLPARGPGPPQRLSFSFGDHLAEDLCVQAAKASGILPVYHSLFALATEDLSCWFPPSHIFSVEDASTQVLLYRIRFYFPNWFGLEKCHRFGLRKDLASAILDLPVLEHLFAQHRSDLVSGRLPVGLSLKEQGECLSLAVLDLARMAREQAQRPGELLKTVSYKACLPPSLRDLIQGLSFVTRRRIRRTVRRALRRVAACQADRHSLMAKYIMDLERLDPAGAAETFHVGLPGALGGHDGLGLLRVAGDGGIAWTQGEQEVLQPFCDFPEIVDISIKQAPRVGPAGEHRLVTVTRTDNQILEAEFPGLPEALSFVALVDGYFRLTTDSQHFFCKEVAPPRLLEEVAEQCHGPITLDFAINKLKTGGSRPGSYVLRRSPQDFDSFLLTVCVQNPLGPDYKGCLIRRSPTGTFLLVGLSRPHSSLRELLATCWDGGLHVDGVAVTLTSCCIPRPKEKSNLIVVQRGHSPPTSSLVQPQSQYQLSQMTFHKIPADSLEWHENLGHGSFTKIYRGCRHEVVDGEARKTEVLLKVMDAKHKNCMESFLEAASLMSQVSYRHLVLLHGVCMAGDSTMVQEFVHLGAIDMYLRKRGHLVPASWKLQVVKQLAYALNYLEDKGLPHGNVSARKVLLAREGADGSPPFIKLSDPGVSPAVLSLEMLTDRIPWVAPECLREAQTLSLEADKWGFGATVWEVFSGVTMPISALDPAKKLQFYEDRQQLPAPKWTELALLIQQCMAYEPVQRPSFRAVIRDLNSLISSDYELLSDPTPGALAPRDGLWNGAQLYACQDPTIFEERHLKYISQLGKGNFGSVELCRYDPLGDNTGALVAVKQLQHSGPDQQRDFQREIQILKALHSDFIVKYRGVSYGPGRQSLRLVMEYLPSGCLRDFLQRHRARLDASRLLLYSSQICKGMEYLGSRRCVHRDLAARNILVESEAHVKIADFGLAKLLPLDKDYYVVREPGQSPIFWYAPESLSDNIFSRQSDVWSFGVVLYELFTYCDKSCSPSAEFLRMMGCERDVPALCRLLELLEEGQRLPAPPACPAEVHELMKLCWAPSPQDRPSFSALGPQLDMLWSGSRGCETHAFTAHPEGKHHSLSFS
Experimental: Provided compounds are evaluated for selectivity by comparing their JAK2 binding affinity (Kd) in the above JAK2 Binding Assay with their binding affinity (Kd) for one or more other kinases. Binding affinity for other kinases is determined as follows: Kinase-tagged T7 phage strains are prepared in an E. coli host derived from the BL21 strain. E. coli are grown to log-phase and infected with T7 phage and incubated with shaking at 32° C. until lysis. The lysates are centrifuged and filtered to remove cell debris. The remaining kinases are produced in HEK-293 cells and subsequently tagged with DNA for qPCR detection. Streptavidin-coated magnetic beads are treated with biotinylated small molecule ligands for 30 minutes at room temperature to generate affinity resins for kinase assays. The liganded beads are blocked with excess biotin and washed with blocking buffer (SeaBlock (Pierce), 1% BSA, 0.05% Tween 20, 1 mM DTT) to remove unbound ligand and to reduce non-specific binding. Binding reactions are assembled by combining kinases, liganded affinity beads, and test compounds in 1× binding buffer (20% SeaBlock, 0.17×PBS, 0.05% Tween 20, 6 mM DTT). Test compounds are prepared as 111× stocks in 100% DMSO. Kds are determined using an 11-point 3-fold compound dilution series with three DMSO control points. All compounds for Kd measurements are distributed by acoustic transfer (non-contact dispensing) in 100% DMSO. The compounds are then diluted directly into the assays such that the final concentration of DMSO is 0.9%. All reactions are performed in polypropylene 384-well plate. Each has a final volume of 0.02 ml. The assay plates are incubated at room temperature with shaking for 1 hour and the affinity beads are washed with wash buffer (1×PBS, 0.05% Tween 20). The beads are then re-suspended in elution buffer (1× PBS, 0.05% Tween 20, 0.5 μM non-biotinylated affinity ligand) and incubated at room temperature with shaking for 30 minutes. The kinase concentration in the eluates is measured by qPCR. […] In some embodiments, provided compounds may be JAK2-selective over one or more of the following kinases: JAK1, JAK3, and Tyk2.

| SMILES | JAK3/JAK2 Kd/Kd ratio |
| --- | --- |
| COC(=O)Nc1cc(Oc2cnc3nc(Nc4cc(C(F)(F)F)cn(C)c4=O)n(C)c3c2C#N)ccn1 [Example I-3, Methyl (4-((7-cyano-1-methyl-2-((1-methyl-2-oxo-5-(trifluoromethyl)-1,2-dihydropyridin-3-yl)amino)-1H-imidazo[4,5-b]pyridin-6-yl)oxy)pyridin-2-yl)carbamate] | A (Kd/Kd ratio ≥1000) |
| CN(C)C(=O)Nc1cc(Oc2cnc3nc(Nc4cc(C(F)(F)F)cn(C)c4=O)n(C)c3c2C#N)ccn1 [Example I-4, 3-(4-((7-cyano-1-methyl-2-((1-methyl-2-oxo-5-(trifluoromethyl)-1,2-dihydropyridin-3-yl)amino)-1H-imidazo[4,5-b]pyridin-6-yl)oxy)pyridin-2-yl)-1,1-dimethylurea] | A (Kd/Kd ratio ≥1000) |
| Cn1cc(C(F)(F)F)cc(Nc2nc3ncc(Oc4ccnc(NC(=O)N5CCC5)c4)c(C#N)c3n2C)c1=O [Example I-7, N-(4-((7-cyano-1-methyl-2-((1-methyl-2-oxo-5-(trifluoromethyl)-1,2-dihydropyridin-3-yl)amino)-1H-imidazo[4,5-b]pyridin-6-yl)oxy)pyridin-2-yl)azetidine-1-carboxamide] | A (Kd/Kd ratio ≥1000) |
| CO[C@H]1CCN(C(=O)Nc2cc(Oc3cnc4nc(Nc5cc(C(F)(F)F)cn(C)c5=O)n(C)c4c3C#N)ccn2)C1 [Example I-14, (S)-N-(4-((7-cyano-1-methyl-2-((1-methyl-2-oxo-5-(trifluoromethyl)-1,2-dihydropyridin-3-yl)amino)-1H-imidazo[4,5-b]pyridin-6-yl)oxy)pyridin-2-yl)-3-methoxypyrrolidine-1-carboxamide] | A (Kd/Kd ratio ≥1000) |
| Cn1cc(C(F)(F)F)cc(Nc2nc3ncc(Oc4ccnc(NC(=O)OCCN5CCOCC5)c4)c(C#N)c3n2C)c1=O [Example I-15, 2-Morpholinoethyl(4-((7-cyano-1-methyl-2-((1-methyl-2-oxo-5-(trifluoromethyl)-1,2-dihydropyridin-3-yl)amino)-1H-imidazo[4,5-b]pyridin-6-yl)oxy)pyridin-2-yl)carbamate] | A (Kd/Kd ratio ≥1000) |
| Cn1cc(C(F)(F)F)cc(Nc2nc3ncc(Oc4ccnc(NC(=O)O[C@@H]5CCOC5)c4)c(C#N)c3n2C)c1=O [Example I-18, (R)-Tetrahydrofuran-3-yl(4-((7-cyano-1-methyl-2-((1-methyl-2-oxo-5-(trifluoromethyl)-1,2-dihydropyridin-3-yl)amino)-1H-imidazo[4,5-b]pyridin-6-yl)oxy)pyridin-2-yl)carbamate] | A (Kd/Kd ratio ≥1000) |
| CO[C@@H]1CCN(C(=O)Nc2cc(Oc3cnc4nc(Nc5cc6n(n5)CCC65CCC5)n(C)c4c3C#N)ccn2)C1 [Example I-60, (R)-N-(4-((7-cyano-2-((5′,6′-dihydrospiro[cyclobutane-1,4′-pyrrolo[1,2-b]pyrazol]-2′-yl)amino)-1-methyl-1H-imidazo[4,5-b]pyridin-6-yl)oxy)pyridin-2-yl)-3-methoxypyrrolidine-1-carboxamide] | B (Kd/Kd ratio <1000 and ≥300) |
| COC1CN(C(=O)Nc2cc(Oc3cnc4nc(Nc5cc6n(n5)CCC65CCC5)n(C)c4c3C#N)ccn2)C1 [Example I-61, N-(4-((7-cyano-2-((5′,6′-dihydrospiro[cyclobutane-1,4′-pyrrolo[1,2-b]pyrazol]-2′-yl)amino)-1-methyl-1H-imidazo[4,5-b]pyridin-6-yl)oxy)pyridin-2-yl)-3-methoxyazetidine carboxamide] | A (Kd/Kd ratio ≥1000) |
| COCCOC(=O)Nc1cc(Oc2cnc3nc(Nc4cc5n(n4)CCC54CCC4)n(C)c3c2C#N)ccn1 [Example I-62, 2-methoxyethyl(4-((7-cyano-2-((5′,6′-dihydrospiro[cyclobutane-1,4′-pyrrolo[1,2-b]pyrazol]-2′-yl)amino)-1-methyl-1H-imidazo[4,5-b]pyridin-6-yl)oxy)pyridin-2-yl)carbamate] | A (Kd/Kd ratio ≥1000) |
| COCC(=O)Nc1cc(Oc2cnc3nc(Nc4cc(C(F)(F)F)cn(C)c4=O)n(C)c3c2Cl)ccn1 [Example I-75, N-(4-((7-chloro-1-methyl-2-((1-methyl-2-oxo-5-(trifluoromethyl)-1,2-dihydropyridin-3-yl)amino)-1H-imidazo[4,5-b]pyridin-6-yl)oxy)pyridin-2-yl)-2-methoxyacetamide] | A (Kd/Kd ratio ≥1000) |
| COCC(=O)Nc1cc(Oc2cnc3nc(Nc4cc(C(F)(F)F)cn(C)c4=O)n(C)c3c2C#N)ccn1 [Example I-79, N-(4-((7-cyano-1-methyl-2-((1-methyl-2-oxo-5-(trifluoromethyl)-1,2-dihydropyridin-3-yl)amino)-1H-imidazo[4,5-b]pyridin-6-yl)oxy)pyridin-2-yl)-2-methoxyacetamide] | A (Kd/Kd ratio ≥1000) |
| CC(=O)Nc1cc(Oc2cnc3nc(Nc4cc(C(F)(F)F)cn(C)c4=O)n(C)c3c2Cl)c(F)cn1 [Example I-88, N-(4-((7-chloro-1-methyl-2-((1-methyl-2-oxo-5-(trifluoromethyl)-1,2-dihydropyridin-3-yl)amino)-1H-imidazo[4,5-b]pyridin-6-yl)oxy)-5-fluoropyridin-2-yl)acetamide] | A (Kd/Kd ratio ≥1000) |
| Cn1c(Nc2cc3n(n2)CCC32CCC2)nc2ncc(Oc3ccnc(NC(=O)C4CC4)c3)c(C#N)c21 [Example I-122, N-(4-((7-cyano-2-((5′,6′-dihydrospiro[cyclobutane-1,4′-pyrrolo[1,2-b]pyrazol]-2′-yl)amino)-1-methyl-1H-imidazo[4,5-b]pyridin-6-yl)oxy)pyridin-2-yl)cyclopropanecarboxamide] | B (Kd/Kd ratio <1000 and ≥300) |
| CCN1CCN(Cc2ccc(Nc3nc4ccc(Oc5ccnc(NC(C)=O)c5)cc4n3C)cc2C(F)(F)F)CC1 [Example R-1, reference compound] | A (Kd/Kd ratio ≥1000) |
